# Data: US10758607B2, “Respiratory syncytial virus having cleavage-resistant G protein and related materials and methods” (The Research Institute at Nationwide Children's Hospital, priority 2015, dated 2020)
# “Also recorded” adds a separate entry of the source. Where a SMILES comes first, the peptide text is derived from it.
# What was measured:
# [1] = tested on: RSV G protein cleavage in Vero cells; experiment: Cell-surface RSV G protein cleavage in rgRSV-infected cells treated with protease inhibitors (biotinylation, immunoblot with mAb L9); assay type: cell-based; settings: 24 hpi
# Method: To elucidate the class of protease responsible for G protein cleavage in Vero cells, cells were treated with increasing concentrations of protease inhibitors after inoculating with recombinant green fluorescent protein expressing RSV (rgRSV). Cells were incubated with rgRSV for 2 h with tipping at 37° C. before replacing inoculum with fresh cell culture medium. Drugs were added at different times post infection. In each case, uninfected, no drug, and vehicle (at the highest concentration used) were included in all experiments as controls. In all experiments at 24 hpi, cell surface proteins were biotinylated, cells lysed and equivalent amounts of protein from each sample were mixed with streptavidin beads.
# Aprotinin, a serine protease inhibitor, leupeptin, a serine/cysteine protease inhibitor; or E-64, a cysteine protease inhibitor were added to the cell culture media (3.125 to 50 μg/ml) from 2-24 hpi. The most likely proteins to be incorporated into the virions are cell surface proteins, so the cell surfaced was biotinylated, proteins isolated from lysed cells with streptavidin beads, and immunobloted with L9, a mAb to the G protein, as a probe (FIG. 1A). In the untreated and vehicle treated samples most of the cell surface G protein was cleaved (˜55 kDa), leaving only a small portion of full length (˜90 kDa) G protein. […] Since both leupeptin and E64 block the activity of cysteine proteases, the protease responsible for cleavage of the G protein in Vero cells is a cysteine protease.
# To narrow the field of cysteine proteases, cells were treated at 6 hpi with a more specific cysteine protease inhibitor, ALLM (0.1 to 100 μM).
# RSV-infected HeLa and Vero cells were treated with a cathepsin B inhibitor, CA-074 (0.1 to 100 μM), or a cathepsin L inhibitor, cathepsin L inhibitor III (0.1 to 100 μM) 6 hpi.
# Cathepsin L is a protease present primarily in the interior of the lysosome and is optimally active at acidic pH. Vero cells expressing the G protein were treated with chloroquine to raise the pH of the lysosome. […] To generate FIG. 4C, cells were inoculated with RSV or mock inoculated. 6 hpi the cells were treated with increasing concentrations of chloroquine. 24 hpi cells were biotinylated and G protein assayed
# HeLa and Vero cells were rgRSV (MOI: 1) or mock inoculated. 2 hpi the inoculum was replaced with fresh complete medium, and 4 hpi cells the medium was changed again to complete medium with 2-fold dilutions of these protease inhibitors (Sigma-Aldrich, St. Louis, Mo.), dissolved in water: Aprotinin (3.125 to 50 μg/ml); Leupeptin (6.25 to 100 μg/ml); E-64 (6.25 to 100 μg/ml); or equal volumes of water in medium. In other experiments, cells were treated at 6 hpi with: 10-fold dilutions (0.1 to 100 μM) of: Cathepsin inhibitor I (Calbiochem); ALLM (Santa Cruz, Dallas, Tex.); Chloroquine diphosphate salt (Sigma Aldrich) or equivalent volumes of vehicle (water); CA-074 (Calbiochem); Cathepsin L inhibitor III (Calbiochem); or an equal volume of vehicle (DMSO) in medium.
# At 24 hpi cells were biotinylated with Ez-link Sulfo-NHS-LC-Biotin (Thermo Fisher). Cells were lysed with lysis buffer containing 150 mM NaCl, 1% Triton X-100, 50 mM Tris, 0.1% SDS, and 1× Halt protease cocktail inhibitor (Thermo Fisher). Proteins were quantified using BCA protein assay kit (Pierce, Waltham, Mass.), and equal amounts of protein were added to high capacity streptavidin agarose beads (Thermo Fisher). The mixtures were rotated for 1 h at 4° C., the beads were pelleted and washed with lysis buffer (without protease cocktail inhibitor), NuPage LDS sample buffer was added, and boiled for 5 min, separated by NuPAGE Novex 4-12% bis-tris protein gels and transferred to nitrocellulose in an iBlot transfer stack, using the iBlot transferring system (Life Technologies) for immunoblot analysis. […]
# [2] = tested on: RSV G protein cleavage in Vero cells; experiment: Cleavage of mutant G proteins transiently expressed in Vero cells (immunoblot); assay type: cell-based; settings: for resistance to cleavage of alanine substitution G protein mutants: 24 hours post-transfection; for cleavage of G protein deletion mutants: 24 h post-transfection, vs wt G protein
# Method: The G gene in the region of amino acid 210 was modified by deleting stretches of amino acids in this region (200-211, 204-213, 206-215, 208-217, or 209-213). […] Most of the mutants almost completely ablate cleavage. They all share amino acids 208-211. However, A206-210 and A206-215, both of which bring together amino acids that can also serve as a cathepsin L cleavage site. For FIG. 6B, the mutated G protein genes were transiently expressed in Vero cells. 24 h post-transfection cells were harvested, lysed and proteins were separated by SDS-PAGE, blotted and probed with mAb to the G protein.
# To identify which amino acids are important for cleavage, individual amino acids in and around this region were changed to alanine. These mutant G proteins were transiently expressed in Vero cells and assessed by immunoblot (FIG. 6C). For FIG. 6C, the mutated G protein genes were transiently expressed in Vero cells. 24 hours post-transfection cells were harvested, lysed and proteins were separated by SDS-PAGE, blotted and probed with mAb to the G protein.
# The strain A2 G protein plasmid was mutagenized using synthetic double strand gBlock DNA (Integrated DNA Technologies). Van91I (Thermo Fisher) and Xho I (New England Biolabs) were used to digest plasmid and gBlock. Doubly-digested plasmid was isolated by agarose gel electrophoresis. Digested gBlock and eluted plasmid DNAs were ligated with T4 DNA ligase (Promega, Madison, Wis.), and transformed into One Shot MachI-T1 chemically competent bacteria (Life Technologies). Plasmids were extracted using HiSpeed or Plasmid Plus Maxi kits (Qiagen).
# Wild type G or frG proteins were expressed in HeLa or Vero cells following plasmid transfection with FuGene HD (Promega) or Lipofectamine LTX (Life Technologies), respectively, in medium containing 2% FBS. In frG experiments, medium was collected and concentrated using Ultracel-10 K centrifugal filters (EMD Millipore, Billerica, Mass.). For other transfection experiments, Vero cells were transfected using Lipofectamine 3000 (Life Technologies) in medium containing 10% FBS. For all transfection experiments, cells were lysed and protein quantified by BCA assay. Equivalent HeLa or Vero cell lysate protein and equivalent volumes of concentrated proteins from the medium were analyzed by immunoblotting.
# [3] = rgRSV-infected Vero cells, 6.24 to 100 μg/ml
compound,measurement,setting,value
Aprotinin,G protein cleavage (cell surface G protein),"[1]; rgRSV-infected Vero cells, 3.125 to 50 μg/ml",did not prevent G protein cleavage
"CC(C)C[C@H](NC(=O)[C@H]1O[C@@H]1C(=O)O)C(=O)NCCCCN=C(N)N [E64, E-64]",G protein cleavage (cell surface G protein),[1]; [3],"did, in a dose dependent manner"
same,G protein cleavage (cell surface G protein),"[1]; rgRSV-infected Vero cells, 6.24 to 100 μg/ml, listed as E-64",prevention of cleavage
K209: RSV strain A2 G protein with alanine substitution at K209,efficiency at inhibiting cleavage (rank among alanine substitutions),[2],second most efficient
same,resistance to cleavage of alanine substitution G protein mutants,[2],partially to nearly completely resistant to cleavage
CCN(CC)CCCC(C)Nc1ccnc2cc(Cl)ccc12 (stereo not drawn) [chloroquine],G protein on the cell surface (cleaved vs full length),"[1]; Vero cells, increasing concentrations of chloroquine from 6 hpi",primarily full length G protein; also recorded: decreased cleavage
D214: RSV strain A2 G protein with alanine substitution at D214,resistance to cleavage of alanine substitution G protein mutants,[2],partially to nearly completely resistant to cleavage
206-215: RSV G protein with amino acids 206-215 deleted,cleavage of G protein deletion mutants,[2],cleaved less efficiently than the wt G protein
same,cleavage of G protein deletion mutants,[2]; listed as Δ206-215,inhibit but do not abolished protein cleavage
Δ206-210,cleavage of G protein deletion mutants,[2],inhibit but do not abolished protein cleavage
CC(=O)N[C@@H](CC(C)C)C(=O)N[C@@H](CC(C)C)C(=O)N[C@H](C=O)CCCNC(=N)N [leupeptin],G protein cleavage (cell surface G protein),[1]; [3],"did, in a dose dependent manner"
same,G protein cleavage (cell surface G protein),"[1]; rgRSV-infected Vero cells, 6.24 to 100 μg/ml, listed as Leupeptin",prevention of cleavage
K212: RSV strain A2 G protein with alanine substitution at K212,resistance to cleavage of alanine substitution G protein mutants,[2],partially to nearly completely resistant to cleavage
CCCNC(=O)[C@H]1O[C@@H]1C(=O)N[C@H](C(=O)N1CCC[C@H]1C(=O)O)[C@@H](C)CC [CA-074],G protein cleavage (cell surface G protein),"[1]; RSV-infected HeLa and Vero cells, 0.1 to 100 μM at 6 hpi",RSV G protein cleavage in the presence; also recorded: did not change this pattern
CSCC[C@@H](C=O)NC(=O)[C@H](CC(C)C)NC(=O)[C@H](CC(C)C)NC(C)=O [ALLM] (Ac-Leu-Leu-Met-aldehyde),G protein cleavage (cell surface G protein),"[1]; rgRSV-infected Vero cells, treated at 6 hpi, 0.1 to 100 μM",prevention of cleavage; also recorded: inhibited G protein cleavage
